Like-named read-outs stand apart in the source and are kept apart here.
What was measured:
RNase P RNA [1] = assay: Inhibition of RNase P RNA cleavage; assay type: biochemical, Escherichia coli; settings: value without asterisk; read-out: appKi inhibition of RNase P RNA cleavage
Description: The structure of some aminoglycosides that inhibit RNase P cleavage are depicted in FIG. 3. Aminoglycosides bind to RNA and displace functionally important divalent metal ions. Thus, aminoglycosides function as metal mimics (Mikkelsen et al., 2001).
RNase P cleavage and Pb2+-induced cleavage was performed and monitored according to standard protocols as described by Kufel and Kirsebom (1998). To determine the appKi value for a given substance RNase P cleavage or Pb2+-induced cleavage conditions were adjusted in such a way that measurements were carried out in the linear portion of the curve of kinetics of the cleavage reaction.

[2] = biological target: 31-mer RNA representing the P15-loop of RNase P RNA; assay: Inhibition of Pb2+-induced cleavage of the 31-mer model RNA (P15-loop); assay type: binding, Escherichia coli; settings: aminoglycoside concentration that gives 50% inhibition of Pb2+-induced cleavage; read-out: appKi 31-mer RNA
[3] = biological target: Escherichia coli Klenow polymerase (pol) (Escherichia coli, UniProt P00582, D355A/E357A); assay: Inhibition of Klenow polymerase activity
[4] = biological target: T1, mammalian poly(A)-specific ribonuclease (PARN) (Bos taurus, UniProt P69341); assay: Inhibition of PARN deadenylation activity; assay type: biochemical, calf thymus; settings: for IC50: appKi = aminoglycoside concentration resulting in 50% inhibition of PARN activity, pH 7.0
T1 sequence (P69341 1-430 limits assumed): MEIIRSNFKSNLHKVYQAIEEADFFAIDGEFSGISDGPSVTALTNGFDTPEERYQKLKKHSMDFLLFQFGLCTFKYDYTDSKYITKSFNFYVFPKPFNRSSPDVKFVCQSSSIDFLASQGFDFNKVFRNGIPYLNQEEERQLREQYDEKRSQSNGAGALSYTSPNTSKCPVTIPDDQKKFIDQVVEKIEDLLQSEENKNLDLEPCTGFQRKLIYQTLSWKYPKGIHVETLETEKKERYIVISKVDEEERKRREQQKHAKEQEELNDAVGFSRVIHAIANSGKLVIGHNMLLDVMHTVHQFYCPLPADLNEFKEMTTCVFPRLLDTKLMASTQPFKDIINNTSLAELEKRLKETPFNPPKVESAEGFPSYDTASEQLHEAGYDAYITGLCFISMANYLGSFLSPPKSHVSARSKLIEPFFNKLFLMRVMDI
From the text: Homogeneously purified calf thymus PARN 54 kDa active fragment was used as the source of PARN (Martinez et al. 2000). Recombinant full length human PARN was expressed and purified as described (Martinez et al. 2000). As the substrate we used L3(A30) RNA radioactively labelled in its poly(Å) tail (Åström et al. 1991). Assay conditions and 1-D TLC quantitation procedures were as previously described (Åström et al. 1992). The pH of the deadenylation reactions were 7.0, unless stated otherwise. The consumption of L3(A30) RNA substrate was controlled so that no more than 20% of it was consumed.

[5] = system: Full-size E. coli RNase P RNA; settings: Mikkelsen et al., 1999; cited from earlier work
[6] = biological target: T2, HIV reverse transcriptase (Human immunodeficiency virus type 1 group M subtype B, UniProt P04585); assay: In vitro inhibition of HIV reverse transcriptase; assay type: biochemical; settings: addition of 0.1-5 mM neomycin B
T2 construct: HIV reverse transcriptase
From the text: (§1) The mechanisms behind toxicity and severe side-effects are not understood and several potential causes have been discussed in the literature.

bacterial RNase H = bacterial RNase H (Escherichia coli, UniProt P0A7Y4); assay: In vitro inhibition of bacterial RNase H; assay type: biochemical; settings: addition of 0.1-5 mM neomycin B
From the text: as §1

[7] = biological target: Bam HI restriction enzyme (Bacillus amyloliquefaciens, UniProt P23940); assay: In vitro inhibition of Bam HI restriction enzyme; assay type: biochemical; settings: addition of 0.1-5 mM neomycin B
From the text: as §1

Klenow pol = assay: Fe(II) mediated hydroxyl radical cleavage of Klenow pol; assay type: binding, Escherichia coli
Description: 2-4 microgram of purified recombinant Klenow pol fragment or mutant thereof, dialysed against buffer F (20 mM HEPES-KOH pH 7.0, 5 mM NaCl) on a Milipore “V” Series Membrane (Millipore) for 30 minutes at 4° C., was incubated for 30 minutes at 37° C. in 50 mM HEPES pH 7.0, 5 mM NaCl, 20 micromolar Fe(NH4)2SO4 and 10 mM DTT in total volume of 10 microliter. The incubations were stopped by the addition of 10 microliter of 2×SDS-loading buffer (100 mM Tris-HCl pH 6.8, 2% (w/v) SDS, 200 mM DTT, 16%(v/v) glycerol, 0.05%(w/v) bromolphenol blue and 50 mM EDTA). The amount of added Mg(II)-ions, Mn(II)-ions or aminoglycoside was as indicated. Reacted polypeptides were fractionated by 10% SDS-polyacrylamide gel electrophoresis and subsequently visualised by silver staining.

PARN = biological target: T3, PARN (Homo sapiens, UniProt O95453); assay: Fe(II) mediated hydroxyl radical cleavage of PARN; assay type: binding
T3 construct: Recombinant full length human PARN was expressed and purified as described; made in house; host or cells: E. coli
T3 sequence (O95453 1-639): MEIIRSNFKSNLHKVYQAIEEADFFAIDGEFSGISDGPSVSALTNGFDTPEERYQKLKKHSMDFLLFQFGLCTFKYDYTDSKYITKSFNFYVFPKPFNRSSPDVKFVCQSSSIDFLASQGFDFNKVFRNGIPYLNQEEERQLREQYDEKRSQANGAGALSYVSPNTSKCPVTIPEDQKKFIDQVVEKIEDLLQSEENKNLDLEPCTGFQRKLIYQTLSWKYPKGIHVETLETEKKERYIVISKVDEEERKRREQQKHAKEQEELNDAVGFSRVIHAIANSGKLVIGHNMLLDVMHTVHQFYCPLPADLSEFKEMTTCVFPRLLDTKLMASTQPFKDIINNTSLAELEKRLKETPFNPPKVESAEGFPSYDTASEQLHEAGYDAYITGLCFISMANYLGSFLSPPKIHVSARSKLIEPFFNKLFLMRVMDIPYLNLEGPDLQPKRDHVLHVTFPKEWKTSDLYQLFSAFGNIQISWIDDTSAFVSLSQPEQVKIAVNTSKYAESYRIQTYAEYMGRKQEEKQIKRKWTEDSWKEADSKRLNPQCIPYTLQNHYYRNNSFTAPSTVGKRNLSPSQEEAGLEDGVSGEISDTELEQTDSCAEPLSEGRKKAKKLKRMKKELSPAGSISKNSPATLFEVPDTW
Description: Recombinant PARN polypeptides expressed in E. coli were purified and radioactively labelled in their N-termini. Fe(II) mediated hydroxyl radical cleavage, of PARN was essentially performed as described above. Reacted samples were subjected to 10% SDS-polyacrylamide gel electrophoresis and the resulting gel was subsequently visualized and quantified using a 400 S PhosphorImager (Molecular Dynamics). In the Mg(II) and Mn(II) ions competition experiments, MgCl2 or MnCl2 was added at indicated concentration in the presence of 20 micromolar Fe(NH4)2SO4.

RNase P RNA [8] = settings: values marked *, from Mikkelsen et al., 1999; read-out: appKi inhibition of RNase P RNA cleavage; cited from earlier work
[9] = biological target: mammalian poly(A) polymerase (Homo sapiens, UniProt P51003); assay: In vitro inhibition of mammalian poly(A) polymerase; assay type: biochemical; settings: addition of 0.1-5 mM neomycin B
From the text: as §1

T7 RNA polymerase = T7 RNA polymerase (Escherichia phage T7, UniProt P00573); assay: In vitro inhibition of T7 RNA polymerase; assay type: biochemical; settings: addition of 0.1-5 mM neomycin B
From the text: as §1

Taq DNA polymerase = Taq DNA polymerase (Thermus aquaticus, UniProt P19821); assay: In vitro inhibition of Taq DNA polymerase; assay type: biochemical; settings: addition of 0.1-5 mM neomycin B
From the text: as §1

[10] = read-out: appKi (for KL pol), […], pH 7.0

Escherichia coli Klenow polymerase (pol), sequence (P00582 324-928 D355A/E357A): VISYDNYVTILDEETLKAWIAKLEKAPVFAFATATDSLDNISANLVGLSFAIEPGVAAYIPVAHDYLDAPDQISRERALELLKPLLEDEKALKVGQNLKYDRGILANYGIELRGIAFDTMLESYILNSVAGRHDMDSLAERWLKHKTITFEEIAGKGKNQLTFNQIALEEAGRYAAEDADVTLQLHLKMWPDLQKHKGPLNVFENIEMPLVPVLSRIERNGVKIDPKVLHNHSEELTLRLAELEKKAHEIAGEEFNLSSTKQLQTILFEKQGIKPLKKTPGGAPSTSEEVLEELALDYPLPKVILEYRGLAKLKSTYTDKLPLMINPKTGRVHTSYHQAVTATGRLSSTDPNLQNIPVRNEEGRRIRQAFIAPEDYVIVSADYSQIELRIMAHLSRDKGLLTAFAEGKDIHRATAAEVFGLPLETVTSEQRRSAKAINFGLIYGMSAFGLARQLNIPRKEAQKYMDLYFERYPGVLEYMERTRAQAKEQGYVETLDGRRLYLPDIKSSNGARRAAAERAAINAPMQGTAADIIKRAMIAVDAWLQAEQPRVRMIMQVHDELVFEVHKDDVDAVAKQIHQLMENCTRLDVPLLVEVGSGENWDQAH
T7 RNA polymerase, sequence (P00573 whole entry): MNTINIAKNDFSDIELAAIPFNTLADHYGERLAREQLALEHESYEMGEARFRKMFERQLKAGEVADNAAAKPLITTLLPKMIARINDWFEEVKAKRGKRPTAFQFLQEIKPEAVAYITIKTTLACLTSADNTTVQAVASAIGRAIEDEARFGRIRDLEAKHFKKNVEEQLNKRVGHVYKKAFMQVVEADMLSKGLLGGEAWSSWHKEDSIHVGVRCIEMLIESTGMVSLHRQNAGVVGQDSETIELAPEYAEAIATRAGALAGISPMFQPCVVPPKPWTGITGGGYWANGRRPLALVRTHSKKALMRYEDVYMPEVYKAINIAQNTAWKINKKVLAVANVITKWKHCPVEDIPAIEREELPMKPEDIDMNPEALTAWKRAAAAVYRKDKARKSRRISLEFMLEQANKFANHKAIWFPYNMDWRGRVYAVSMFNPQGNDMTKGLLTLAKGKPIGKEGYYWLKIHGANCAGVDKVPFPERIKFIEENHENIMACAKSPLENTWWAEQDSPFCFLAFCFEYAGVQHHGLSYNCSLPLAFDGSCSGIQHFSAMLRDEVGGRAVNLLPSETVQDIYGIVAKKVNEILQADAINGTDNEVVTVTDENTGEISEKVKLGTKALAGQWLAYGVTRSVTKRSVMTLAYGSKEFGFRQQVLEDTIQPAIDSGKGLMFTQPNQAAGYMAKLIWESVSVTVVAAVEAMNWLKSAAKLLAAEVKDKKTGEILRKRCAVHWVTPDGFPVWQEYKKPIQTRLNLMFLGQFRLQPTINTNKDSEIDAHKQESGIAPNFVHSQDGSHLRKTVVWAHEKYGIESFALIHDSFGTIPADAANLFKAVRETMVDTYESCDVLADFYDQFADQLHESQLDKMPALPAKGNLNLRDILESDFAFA
Taq DNA polymerase, sequence (P19821 whole entry): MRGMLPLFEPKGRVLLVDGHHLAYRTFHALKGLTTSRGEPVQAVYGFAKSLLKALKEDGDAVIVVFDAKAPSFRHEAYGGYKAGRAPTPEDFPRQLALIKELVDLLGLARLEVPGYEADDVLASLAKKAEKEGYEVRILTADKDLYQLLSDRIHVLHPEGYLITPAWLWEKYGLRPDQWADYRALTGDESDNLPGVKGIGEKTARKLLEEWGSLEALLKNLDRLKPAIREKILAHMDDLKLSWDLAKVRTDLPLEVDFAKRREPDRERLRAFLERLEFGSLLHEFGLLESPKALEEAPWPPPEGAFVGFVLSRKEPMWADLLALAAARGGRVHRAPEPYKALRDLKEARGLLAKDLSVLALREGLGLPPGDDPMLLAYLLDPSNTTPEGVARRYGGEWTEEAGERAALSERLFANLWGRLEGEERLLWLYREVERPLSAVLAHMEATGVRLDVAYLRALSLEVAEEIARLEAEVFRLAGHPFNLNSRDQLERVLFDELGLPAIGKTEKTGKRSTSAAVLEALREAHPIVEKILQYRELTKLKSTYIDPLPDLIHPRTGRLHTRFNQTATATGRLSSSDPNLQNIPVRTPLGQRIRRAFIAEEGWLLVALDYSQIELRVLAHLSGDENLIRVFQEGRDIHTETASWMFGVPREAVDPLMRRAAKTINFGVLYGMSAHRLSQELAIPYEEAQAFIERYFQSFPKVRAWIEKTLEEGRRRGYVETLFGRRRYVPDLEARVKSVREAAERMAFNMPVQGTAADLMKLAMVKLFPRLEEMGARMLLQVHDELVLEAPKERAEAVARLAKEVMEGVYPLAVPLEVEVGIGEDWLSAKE
mammalian poly(A) polymerase, sequence (P51003 whole entry): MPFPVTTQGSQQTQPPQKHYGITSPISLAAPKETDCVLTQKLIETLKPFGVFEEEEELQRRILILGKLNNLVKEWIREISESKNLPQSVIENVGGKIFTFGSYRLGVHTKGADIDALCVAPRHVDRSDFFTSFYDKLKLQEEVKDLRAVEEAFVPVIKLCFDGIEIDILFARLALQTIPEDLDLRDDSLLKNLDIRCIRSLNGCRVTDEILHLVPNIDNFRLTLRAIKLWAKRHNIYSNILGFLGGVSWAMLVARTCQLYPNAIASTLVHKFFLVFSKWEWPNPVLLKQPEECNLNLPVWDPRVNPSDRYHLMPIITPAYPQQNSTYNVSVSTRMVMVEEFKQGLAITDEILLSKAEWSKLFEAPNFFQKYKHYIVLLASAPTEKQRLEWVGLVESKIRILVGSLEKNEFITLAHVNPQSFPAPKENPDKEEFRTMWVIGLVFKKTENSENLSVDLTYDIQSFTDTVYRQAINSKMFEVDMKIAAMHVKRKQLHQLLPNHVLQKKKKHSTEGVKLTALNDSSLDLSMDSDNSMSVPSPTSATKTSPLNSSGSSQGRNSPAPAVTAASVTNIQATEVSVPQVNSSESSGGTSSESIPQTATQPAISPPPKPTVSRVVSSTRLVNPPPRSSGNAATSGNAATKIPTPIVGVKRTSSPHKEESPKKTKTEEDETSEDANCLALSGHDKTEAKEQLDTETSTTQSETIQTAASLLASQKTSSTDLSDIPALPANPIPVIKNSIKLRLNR
bacterial RNase H, sequence (P0A7Y4 whole entry): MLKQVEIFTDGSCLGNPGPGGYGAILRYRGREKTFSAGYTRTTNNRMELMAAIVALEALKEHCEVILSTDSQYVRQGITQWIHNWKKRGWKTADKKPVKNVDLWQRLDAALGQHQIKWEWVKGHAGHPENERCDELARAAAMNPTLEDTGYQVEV
Bam HI restriction enzyme, sequence (P23940 whole entry): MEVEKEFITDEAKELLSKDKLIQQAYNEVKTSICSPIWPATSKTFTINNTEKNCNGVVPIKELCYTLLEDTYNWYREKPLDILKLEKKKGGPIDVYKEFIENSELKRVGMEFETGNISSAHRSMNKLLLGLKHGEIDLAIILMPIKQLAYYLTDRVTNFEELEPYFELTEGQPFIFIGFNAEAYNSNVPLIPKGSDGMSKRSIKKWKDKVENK

CN[C@@H]1[C@@H](O)[C@@H](O[C@@H]2[C@H](O)[C@H](O[C@H]3OC(CN)=CC[C@H]3N)[C@@H](N)C[C@H]2N)OC[C@]1(C)O [5-epi-Sisomicin]
IC50 (RNase P RNA [1]): ~3 µM | IC50 [2]: 1.2 µM

NC[C@H]1O[C@H](O[C@H]2[C@H](O)[C@@H](O[C@H]3O[C@H](CO)[C@@H](O)[C@H](N)[C@H]3O)[C@H](N)C[C@@H]2N)[C@H](O)[C@@H](O)[C@@H]1O [Kanamycin A]
IC50 [3, 10]: 14300 ± 1700 µM

NC[C@H]1O[C@H](O[C@H]2[C@H](O)[C@@H](O[C@H]3O[C@H](CO)[C@@H](O)[C@H](N)[C@H]3O)[C@H](N)C[C@@H]2N)[C@H](N)[C@@H](O)[C@@H]1O [Kanamycin B]
IC50 [3, 10]: 9200 ± 300 µM | IC50 [4]: 7.3 ± 0.4 µM

NC[C@@H]1O[C@H](O[C@H]2[C@@H](O)[C@H](O[C@@H]3[C@@H](O)[C@H](N)C[C@H](N)[C@H]3O[C@H]3O[C@H](CO)[C@@H](O)C[C@H]3N)O[C@@H]2CO)[C@H](N)[C@@H](O)[C@@H]1O[C@H]1O[C@H](CO)[C@@H](O)[C@H](O)[C@@H]1O [Lividomycin]
IC50 [3]: 11600 ± 2000 µM | IC50 [4]: 18.7 ± 2.8 µM

NC[C@@H]1O[C@H](O[C@H]2[C@@H](O)[C@H](O[C@@H]3[C@@H](O)[C@H](N)C[C@H](N)[C@H]3O[C@H]3O[C@H](CN)[C@@H](O)[C@H](O)[C@H]3N)O[C@@H]2CO)[C@H](N)[C@@H](O)[C@@H]1O [Neomycin B]
inhibition of Pb2+-induced cleavage of E. coli RNase P RNA [5]: inhibited | inhibition of HIV reverse transcriptase [6]: can be inhibited | mode of inhibition (enzyme kinetic analyses) ([3]; Klenow pol): mixed non-competitive inhibitor | pH dependence of inhibition ([3]; Klenow pol): pH dependent | IC50 [3, 10]: 4800 ± 300 µM | inhibition of bacterial RNase H (bacterial RNase H): can be inhibited | inhibition of Bam HI restriction enzyme [7]: can be inhibited | effect on iron mediated cleavage at the active site (Klenow pol): interfered with iron mediated cleavage | effect on iron mediated cleavage at the active site (PARN): interfered with iron mediated cleavage | mode of inhibition (enzyme kinetic analyses) ([4]; PARN): mixed non-competitive inhibitor | pH dependence of inhibition ([4]; PARN): pH dependent | IC50 [4]: 0.4 ± 0.1 µM | IC50 (RNase P RNA [8]): 35 ± 12 µM | IC50 [2]: 40 µM | inhibition of mammalian poly(A) polymerase [9]: can be inhibited | inhibition of T7 RNA polymerase (T7 RNA polymerase): can be inhibited | inhibition of Taq DNA polymerase (Taq DNA polymerase): can be inhibited

NC[C@@H]1O[C@H](O[C@H]2[C@@H](O)[C@H](O[C@@H]3[C@@H](O)[C@H](N)C[C@H](N)[C@H]3O[C@H]3O[C@H](CO)[C@@H](O)[C@H](O)[C@H]3N)O[C@@H]2CO)[C@H](N)[C@@H](O)[C@@H]1O [Paromomycin]
IC50 [3]: 10300 ± 800 µM | IC50 [4]: 17.3 ± 3.5 µM | IC50 (RNase P RNA [8]): 190 ± 12 µM | IC50 [2]: 340 µM

CN[C@@H]1[C@@H](O)[C@@H](O[C@@H]2[C@@H](O)[C@H](O[C@H]3OC(CN)=CC[C@H]3N)[C@@H](N)C[C@H]2N)OC[C@]1(C)O [Sisomicin]
IC50 [2]: 17 µM

NC[C@H]1O[C@H](O[C@H]2[C@H](O)[C@@H](O[C@H]3O[C@H](CO)[C@@H](O)[C@H](N)[C@H]3O)[C@H](N)C[C@@H]2N)[C@H](N)C[C@@H]1O [Tobramycin]
IC50 [3]: 9300 ± 700 µM | IC50 [4]: 7.1 ± 0.2 µM
